Drawing on PubChem BioAssay AID1632 (University of Pittsburgh Molecular Library Screening Center, 2009), this text covers IC50 and inhibition for 13 compounds.

Results filed as inconclusive are left out.

The first experiment deals with hexokinase 1 [Trypanosoma brucei]. The experiment in a line: T. brucei hexokinase 1 inhibitor potency, dose response, biochemical, IC50 (AID 1632). As to conditions: recombinant TbHK1 enzyme assay, absorbance read-out.
In the case of `O=[N+]([O-])c1cc(/C=N\Nc2nccs2)ccc1O`, the IC50 (as a rule, the concentration that inhibits the measured activity by half) was 2690 nM.

Staying with this experiment, now noted: recombinant TbHK1 enzyme assay, absorbance read-out; inhibition; at 100 µM; stronger effect = higher value.
As for `Cc1ccccc1-n1sc2cc(F)ccc2c1=O`, the inhibition (commonly the drop in the measured response relative to a control, in per cent) is 87.8%. Still for that read-out and setting: then `O=C(Cn1sc2ccccc2c1=O)NC12CC3CC(CC(C3)C1)C2`, with 74.6%. The same measure, in the same setting: the value for `CCOC(=O)Cc1csc(-n2sc3ccccc3c2=O)n1` was 46.9%. As to `Cc1ccc(CNC(=O)CCS(=O)(=O)c2ccc(Br)cc2)cc1`, the inhibition was 82.3%.

With `COc1cc(/C=C(\C#N)c2nc3c(s2)CCCC3)ccc1O`, the inhibition amounted to 42.4%. On to `CCCCCCCCCCCNC(=O)c1ccoc1C`, for which the inhibition was 73.4%. Regarding `O=[N+]([O-])c1cc(/C=N\Nc2nccs2)ccc1O`, the inhibition is 33.3%.

Turning to `O=c1c2ccccc2sn1-c1ccccc1`, the inhibition was determined as 22.3%. Same read-out and setting: the value for `C/C(=C/CCC(C)[C@H]1CC[C@@]2(C)C3=C(CC[C@]12C)[C@@]1(C)CCC(=O)C(C)(C)[C@@H]1CC3)C(=O)O` (some centres undefined) was 55.3%; that for `COc1ccc(C(=O)Nc2cc(Cl)ccc2C(=O)O)cc1` was 75.7%; that for `CCCCc1ccc(/C=C2/C(=O)ON=C2c2ccccc2)s1` was 32.1%. For `COC(=O)c1ccccc1NC(=O)CCS(=O)(=O)c1ccc(Br)cc1`, the inhibition is 71.7%. Still for that read-out and setting: then `O=C(O)CCCCC1CCSS1` (centres undefined), with 96.4%.
